Here are results for 4 compounds from PMC7768359, “Synthesis of Platinum(II) Complexes with Some 1-Methylnitropyrazoles and In Vitro Research on Their Cytotoxic Activity” (Pharmaceuticals, 2020).

Data set [1] can be described thus: Reaction with L-glutathione, UV absorbance at 260 nm. In kind it is physicochemical. The following applies: 2 mM GSH, pH 7.4, 37 °C. An excerpt: Platinum compounds have a strong ability to react with sulfur donor ligands. […] These side reactions are considered as playing an important role in mechanisms of tumor resistance to platinum drugs, their inactivation, and toxic side effects. The two most important endogenous thiols to which platinum complexes can bind after intravenous administration or after they enter the cancer cell are reduced L-glutathione (GSH) and metallothionein (MT). In the present work, we investigated reactions of GSH with compounds 1 and 2, measuring the UV absorbance at 260 nm (which indicates the formation of Pt–S and S–S bonds) as a function of time using a double-beam spectrophotometer (Figure 6). […] Despite the better solubility of tested complexes in acetone, dioxane was used in this experiment due to its lack of absorption of UV radiation at 260 nm in contrast to acetone that strongly absorbs at this wavelength preventing a correct measurement of absorbance changes.
The solutions of compounds 1 or 2 in dioxane (30 µL) at 60 mM concentration were added to 3 mL of 2 mM solution of GSH (reduced L-glutathione) previously saturated with argon in the medium containing 10 mmol/L NaCl and 10 mmol/L Tris xHCl buffer, pH 7.4, warmed to 37 °C, reaching a final concentration of […] of the platinum complex. The reaction progress during incubation at 37 °C was monitored using UV absorption spectrometry at 260 nm. […]

The subject of data set [2] is BALB/3T3 (murine embryonic fibroblast). The data set is described as follows: In vitro cytotoxicity, sulforhodamine B assay, normal cells. To be noted: for IC50: BALB/3T3 normal cells, normoxia, 72 h. In kind it is cell-based. How it is done:
Determination of the cytotoxic activity of compounds tested was performed separately in the normoxia or hypoxia conditions to reveal their potentially bioreductive properties. The experiment was carried out on three human cancer cell lines: MCF-7 breast, ES-2 ovarian and A549 lung adenocarcinoma as well as normal murine embryonic fibroblast BALB/3T3 cell line. In order to facilitate the preparation of solutions of the tested compounds, their initial solutions for dilution were made by dissolving the compounds in acetone.
All cell lines were exposed to each compound tested at four different concentrations for 72 h. […] Additionally, all cell lines were exposed to acetone (Avantor Performance Materials, Gliwice, Poland) (the solvent used for tested compounds) at concentrations corresponding to those present in tested compounds’ dilutions.
After 72 h of cell incubation with the compounds tested, the sulforhodamine B (SRB) assay was performed as described by Shekan et al. with minor modifications. The cells were fixed in situ by adding 50 µL per well of cold 50% trichloroacetic acid (Avantor Performance Materials, Gliwice, Poland) and were incubated at 4 °C for one hour. Following that, wells were washed five times with water and air dried. Next, 50 µL of 0.4% solution of sulforhodamine B (Sigma-Aldrich, Steinheim, Germany) in 1% acetic acid (Avantor Performance Materials, Gliwice, Poland) were added to each well and plates were incubated at room temperature for 0.5 h. After incubation time, the unbound dye was removed by washing plates five times with 1% acetic acid, whereas stains bound to cells was solubilized with 10 mM Tris base (Sigma-Aldrich, Steinheim, Germany). The absorbance of each solution was read by the Multiskan RC photometer (Labsystems Diagnostics Oy, Vantaa, Finland) at a 540 nm wavelength. […] IC50 values were calculated for each experiment on the basis of four different concentrations using Cheburator software, as described by Nevozhay. The tested compounds at each concentration were tested in triplicates in a single experiment and each experiment was repeated at least three times independently.

The nature of data set [3]: Isomerization of complexes in solution. It is filed as physicochemical. To be noted: chloroform, acetone, DMSO, DMF. An excerpt: Additionally, it is worth adding that complexation with 1-methyl-3-nitropyrazole, was unsuccessful, probably because of the steric hindrance of both methyl and nitro groups that constrain access to free pair of electrons of pyrazole nitrogen. Besides, the electrostatic repelling of the approaching tetrachloroplatinate anion by electron dense oxygen atoms of the nitro group may also be an important factor that can hinder and/or prevent the formation of a complex. […] The reason is that both symmetric and antisymmetric valence vibrations of cis Pt(II)complexes are active, contrary to trans isomers in which case only antisymmetric vibration is active.
A solution of 254 mg (2 mmol) of 1-methyl-5-nitropyrazole in 3 mL of acetone was mixed with a solution of 415 mg (1 mmol) of K2PtCl4 in 5 mL of water and maintained in darkness at 25 °C until the reaction completion (TLC, app. 3 days). […] Combustion and spectral analyses for the cis complex 3: Elemental analysis for formula C8H10N6O4Cl2Pt of compound 3: Calculated/Found (%): C 18.47/17.97, H 1.94/1.66, N 16.16/16.50, Cl 13.63/13.87. ^1H NMR (300.15 MHz, acetone-d6): δ[ppm] […] Combustion and spectral analyses for the trans complex 4: Elemental analysis for formula C8H10N6O4Cl2Pt of trans-complex 4: Calculated/Found (%): C 18.47/18.14, H 1.94/1.65, N 16.16/15.89, Cl 13.63/13.82. ^1H NMR (300.15 MHz, acetone-d6): δ[ppm] […]

Regarding `Cn1cc([N+](=O)[O-])c[n+]1[Pt@SP3-2]([Cl])([Cl])[n+]1cc([N+](=O)[O-])cn1C` [Compound 2, trans-dichloridobis(1-methyl-4-nitropyrazole)platinum(II)], the “half-time of the reaction with GSH” value in data set [1] came out at 13 min. The same compound gave a 50% inhibitory concentration (IC50) in data set [2] of 8.19 ± 2.9 µM. The “selectivity index (SI; ratio of cytotoxic concentration for healthy cells to that for cancer cells)” value in data set [2] (BALB/3T3 vs MCF-7, ES-2, A549, range) is recorded as 2.2–11.7.

Regarding `Cn1c([N+](=O)[O-])cc[n+]1[Pt@SP3-2]([Cl])([Cl])[n+]1ccc([N+](=O)[O-])n1C` [Compound 4, trans-dichloridobis(1-methyl-5-nitropyrazole)platinum(II)], the isomerization in solution entry in data set [3] is given as “occurred slowly in chloroform or acetone solutions but much faster in more polar aprotic solvents (DMSO, DMF)”. This compound also came in with a half-inhibitory concentration (IC50) in data set [2] of 74.4 ± 23.2 µM.

Take `Cn1cc([N+](=O)[O-])c[n+]1[Pt@SP2-2]([Cl])([Cl])[n+]1cc([N+](=O)[O-])cn1C` [Compound 1, cis-dichloridobis(1-methyl-4-nitropyrazole)platinum(II)]: the “half-time of the reaction with GSH” value in data set [1] is on record as 83 min. The same compound displayed a half-maximal inhibitory concentration (IC50) in data set [2] of more than 100 µM.

With `Cn1c([N+](=O)[O-])cc[n+]1[Pt@SP2-2]([Cl])([Cl])[n+]1ccc([N+](=O)[O-])n1C` [Compound 3, cis-dichloridobis(1-methyl-5-nitropyrazole)platinum(II)], the isomerization in solution result in data set [3] is on record as “occurred slowly in chloroform or acetone solutions but much faster in more polar aprotic solvents (DMSO, DMF)”. The compound also displayed a concentration for half-maximal inhibition (IC50) in data set [2] of more than 100 µM.

A word on the IC50: it is the concentration needed to halve the response being measured. A low value points to greater potency.
